In US5869469A, “Phosphonocarboxylate compounds for treating amyloidosis” (Queen's University at Kingston, priority 1997, dated 1999):
Structures can show the parent of a compound that is named as a salt.

How the values were obtained:
Aβ peptide = experiment: in vitro circular dichroism (CD) assay of β-sheet secondary structure formation; conditions: Aβ peptide with test compound in Tris-HCl buffer pH 7, incubated 0 or 24 hours at 37° C., CD at 25° C.
Text: It is known that amyloidogenic peptides or proteins which have formed amyloid deposits or plaques have a significant amount of β-sheet secondary structure, while the unaggregated peptide or protein generally has less β-sheet structure. It is believed that the ability of a candidate therapeutic compound to prevent the formation of β-sheet secondary structure in vitro may be correlated with the ability of the compound to inhibit amyloidogenesis in vivo. Accordingly, phosphonate compounds were assayed for ability to prevent the formation of β-sheet secondary structure in an in vitro circular dichroism (CD) assay.
Aβ is a 40 amino acid protein associated with Alzheimer's disease. Aβ peptide was prepared and purified as described in Fraser, P. E. et al., Biochemistry 31, 10716 (1992). Briefly, the peptide was synthesized by standard solid-phase techniques and purified by HPLC according to well known procedures.
All CD experiments were performed on a commercially available instrument. The cell was maintained at 25° C. using a circulating water bath. Computer-averaging of traces was performed to improve signal-to-noise ratios. The solvent signal was subtracted. CD experiments were performed for each test compound according to the following procedure:
A stock solution of purified peptide was made by dissolving the peptide in phosphate-buffered saline (PBS) to a concentration of 2 mg/ml. […]

[1] = test system: cortical/hippocampal neuronal cultures; experiment: neurotoxicity in cortical/hippocampal neuronal cultures; type: cell-based; conditions: concentrations ranging from 10^-7 M to 10^-4 M
amyloid peptide = amyloid peptide solubility assay (overnight incubation, centrifugation, soluble peptide determination); conditions: compound and amyloid peptide incubated together overnight, then centrifugation; preliminary result

SMILES | β-sheet formation (minimum at 218 nm in CD spectrum versus control) (Aβ peptide) | neurotoxicity [1] | effect on amyloid peptide solubility (amount of soluble peptide) (amyloid peptide)
O=C(O)CCOCCP(=O)(O)O [2-carboxyethoxyethylphosphonic acid] | did not appear to prevent β-pleated sheet formation |  | 
O=C(O)P(=O)(O)O [Phosphonoformate sodium salt, Trisodium phosphonoformate] | significantly and reproducibly reduce the amount of β-sheet formation | no significant toxicity | little effect on amyloid peptide solubility
